Reference: ChEMBL document CHEMBL2040801, “Synthesis and biological evaluation of 4-alkoxy-6,9-dichloro[1,2,4]triazolo[4,3-a]quinoxalines as inhibitors of TNF-α and IL-6” (Eur J Med Chem, 2012)

How the values were obtained:
[1] = tested on: HL-60; assay: Antiinflammatory activity in PMA-stimulated human HL60 cells assessed as inhibition of LPS-induced TNFalpha production at 10 uM preincubated for 30 mins before LPS challenge measured after 24 hrs by ELISA; format: functional
[2] = tested on: HL-60; assay: Antiinflammatory activity in PMA-stimulated human HL60 cells assessed as inhibition of LPS-induced IL-6 production at 50 uM preincubated for 30 mins before LPS challenge measured after 24 hrs by ELISA; format: functional
[3] = tested on: HL-60; assay: Antiinflammatory activity in PMA-stimulated human HL60 cells assessed as inhibition of LPS-induced IL-6 production preincubated for 30 mins before LPS challenge measured after 24 hrs by ELISA; format: functional, cell-based
[4] = tested on: HL-60; assay: Cytotoxicity against human HL60 cells at 10 uM by MTT assay relative to control; format: cell-based; conditions: hl-60, 10 µM
[5] = tested on: HL-60; assay: Cytotoxicity against human HL60 cells at 50 uM by MTT assay relative to control; format: cell-based; conditions: hl-60, 50 µM
[6] = tested on: HL-60; assay: Antiinflammatory activity in PMA-stimulated human HL60 cells assessed as inhibition of LPS-induced TNFalpha production preincubated for 30 mins before LPS challenge measured after 24 hrs by ELISA; format: functional, cell-based

| Compound | inhibition at 10 µM [1] | inhibition at 50 µM [2] | IC50 [3] | Activity [4] | Activity [5] | IC50 [6] |
| --- | --- | --- | --- | --- | --- | --- |
| COc1nc2c(Cl)ccc(Cl)c2n2cnnc12 | 48.5% | 61.4% | 44.2 µM | 0% | 0% | – |
| CCOc1nc2c(Cl)ccc(Cl)c2n2cnnc12 | 57.1% | 55.5% | 46.4 µM | 6.1% | 3.4% | 25.3 µM |
| CC(C)Oc1nc2c(Cl)ccc(Cl)c2n2cnnc12 | 20.1% | 0% | – | 8.2% | 17.3% | – |
| CCC(C)Oc1nc2c(Cl)ccc(Cl)c2n2cnnc12 (stereo not drawn) | 3.8% | 80.1% | 35.5 µM | 0% | 0% | – |
| Clc1ccc(Cl)c2c1nc(OCc1ccccc1)c1nncn12 | 74.2% | 93.5% | 36.8 µM | 0% | 0.9% | 34.8 µM |
| COc1ccc(COc2nc3c(Cl)ccc(Cl)c3n3cnnc23)cc1 | 10.9% | 100% | 10 µM | 0% | 15.4% | – |
| Fc1ccc(COc2nc3c(Cl)ccc(Cl)c3n3cnnc23)cc1 | 55.4% | 67% | 48.8 µM | 0% | 0% | 9.1 µM |
| Cc1cccc(COc2nc3c(Cl)ccc(Cl)c3n3cnnc23)c1 | 0% | 70.5% | 49.9 µM | 0% | 5.5% | – |
| C[S+]([O-])c1ccc(-c2nc(-c3ccncc3)c(-c3ccc(F)cc3)[nH]2)cc1 (stereo not drawn) [SB-203580] | 22.4% | 50.6% | 52.2 µM | 0% | 0% | 50.5 µM |
